Laboratory results: US20160326142A1, “PYRAZOLE CARBOXAMIDE COMPOUNDS, COMPOSITIONS AND METHODS OF USE” (Genentech, Inc., priority 2012, published 2016)

Target: T1, ITK (Homo sapiens, UniProt Q08881)
T1 construct: purchased Invitrogen PV3875
T1 sequence (Q08881 1-620): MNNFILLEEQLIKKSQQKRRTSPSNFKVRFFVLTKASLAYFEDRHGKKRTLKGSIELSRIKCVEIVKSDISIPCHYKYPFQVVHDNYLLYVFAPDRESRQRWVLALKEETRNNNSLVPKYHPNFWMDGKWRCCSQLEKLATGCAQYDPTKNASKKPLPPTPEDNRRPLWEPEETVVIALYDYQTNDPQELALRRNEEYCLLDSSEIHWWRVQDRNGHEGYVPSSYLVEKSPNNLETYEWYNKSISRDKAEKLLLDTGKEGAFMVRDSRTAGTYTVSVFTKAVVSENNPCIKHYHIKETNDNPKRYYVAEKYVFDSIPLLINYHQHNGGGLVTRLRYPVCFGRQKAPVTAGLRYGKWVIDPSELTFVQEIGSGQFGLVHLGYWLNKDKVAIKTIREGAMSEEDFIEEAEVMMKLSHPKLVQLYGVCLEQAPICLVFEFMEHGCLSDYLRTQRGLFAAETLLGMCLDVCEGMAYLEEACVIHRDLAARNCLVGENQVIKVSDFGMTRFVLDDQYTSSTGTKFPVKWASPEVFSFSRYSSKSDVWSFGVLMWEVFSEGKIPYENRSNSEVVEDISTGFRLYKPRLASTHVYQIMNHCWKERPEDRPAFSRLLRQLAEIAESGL
Assay: ITK enzyme assay (Caliper or LCMS peptide phosphorylation)
Assay type: biochemical
Settings: purified ITK (Invitrogen PV3875), 20 μM ATP, Ki by Morrison's quadratic equation
Method: The ability of purified ITK (Invitrogen PV3875) to catalyze peptide phosphorylation is monitored using a Caliper LabChip 3000 microfluidic unit (Caliper assay) or by liquid chromatography-mass spectrometry (LCMS) using a Waters Acquity system (LCMS assay). […] Reactions are quenched by the addition of 2,2′,2″,2′″-(ethane-1,2-diyldinitrilo)tetraacetic acid (50 mM final). Non-phosphorylated substrate and phosphorylated product peptides are separated and quantified using a Caliper LabChip 3000 instrument. […] Reactions are quenched by the addition of trichloroacetic acid (5% v/v final). Non-phosphorylated substrate and phosphorylated product peptides are separated by ultra performance LC and detected by a coupled triple quadrupole MS device applying multiple reaction monitoring (MRM) for quantification. The area of the MRM-extracted mass signal is used to assess the inhibition by test compounds. Equilibrium dissociation constant (Ki) values for ITK inhibitors are calculated from plots of activity vs. inhibitor concentration using Morrison's quadratic equation that accounts for the potential of tight binding, and by also applying the conversion factor that accounts for competitive inhibition and the concentration of ATP used in the assay relative to its apparent Michaelis constant (Km,app).

SMILES | Ki
CC1(C)CCc2c(C(=O)Nc3cnn(C(CN4CCCC4=O)c4ccccc4)c3)n[nH]c2C1 (racemic) [Example 76, 6,6-dimethyl-N-(1-(2-(2-oxopyrrolidin-1-yl)-1-phenylethyl)-1H-pyrazol-4-yl)-4,5,6,7-tetrahydro-1H-indazole-3-carboxamide] | 4 nM
N#Cc1cccc(Cn2cc(NC(=O)c3n[nH]c4c3CCC(c3cn[nH]c3)C4)cn2)c1 (single isomer, unassigned) [Example 1a, N-(1-(3-cyanobenzyl)-1H-pyrazol-4-yl)-6-(1H-pyrazol-4-yl)-4,5,6,7-tetrahydro-1H-indazole-3-carboxamide] | 9.4 nM
N#Cc1cccc(Cn2cc(NC(=O)c3n[nH]c4c3CCC(O)C4)cn2)c1 (single isomer, unassigned) [Example 5a, N-(1-(3-cyanobenzyl)-1H-pyrazol-4-yl)-6-hydroxy-4,5,6,7-tetrahydro-1H-indazole-3-carboxamide] | 310 nM
O=C(Nc1cnn(Cc2ccccc2)c1)c1n[nH]c2c1CCC(CO)C2 (single isomer, unassigned) [Example 14a, N-(1-benzyl-1H-pyrazol-4-yl)-6-(hydroxymethyl)-4,5,6,7-tetrahydro-1H-indazole-3-carboxamide] | 120 nM
CN(C)CCC(c1ccccc1)n1cc(NC(=O)c2n[nH]c3c2CCC2(COC2)C3)cn1 (single isomer, unassigned) [Example 15b, N-(1-(3-(dimethylamino)-1-phenylpropyl)-1H-pyrazol-4-yl)-1,4,5,7-tetrahydrospiro[indazole-6,3′-oxetane]-3-carboxamide] | 100 nM
O=C(Nc1cnn(Cc2ccccc2)c1)c1n[nH]c2c1C1CC1CC2 (single isomer, unassigned) [Example 23b, N-(1-benzyl-1H-pyrazol-4-yl)-3,4,5,5a,6,6a-hexahydrocyclopropa[e]indazole-1-carboxamide] | 550 nM
CC[C@@H](c1ccccc1)n1cc(NC(=O)c2n[nH]c3c2CC2CC2C3)cn1 (single isomer, unassigned) [Example 24a] | 9.4 nM
CC[C@@H](c1ccccc1)n1cc(NC(=O)c2n[nH]c3c2C2CC2CC3)cn1 (single isomer, unassigned) [Example 25a] | 1.7 nM
CC[C@@H](c1ccccc1)n1cc(NC(=O)c2n[nH]c3c2C2CC2CC3)cn1 (single isomer, unassigned) [Example 25b] | 94 nM
CN(C)CCC(c1ccccc1)n1cc(NC(=O)c2n[nH]c3c2C2CC2CC3)cn1 (single isomer, unassigned) [Example 26b, N-(1-(3-(dimethylamino)-1-phenylpropyl)-1H-pyrazol-4-yl)-3,4,5,5a,6,6a-hexahydrocyclopropa[e]indazole-1-carboxamide] | 46 nM

Now from value to molecule:

Ki | SMILES
8.3 nM | N#Cc1cccc(Cn2cc(NC(=O)c3n[nH]c4c3CCC(c3cn[nH]c3)C4)cn2)c1 (single isomer, unassigned) [Example 1b, N-(1-(3-cyanobenzyl)-1H-pyrazol-4-yl)-6-(1H-pyrazol-4-yl)-4,5,6,7-tetrahydro-1H-indazole-3-carboxamide]
68 nM | N#Cc1cccc(Cn2cc(NC(=O)c3n[nH]c4c3CC(c3cn[nH]c3)CC4)cn2)c1 (single isomer, unassigned) [Example 2a, N-(1-(3-cyanobenzyl)-1H-pyrazol-4-yl)-5-(1H-pyrazol-4-yl)-4,5,6,7-tetrahydro-1H-indazole-3-carboxamide]
34 nM | N#Cc1cccc(Cn2cc(NC(=O)c3n[nH]c4c3CC(c3cn[nH]c3)CC4)cn2)c1 (single isomer, unassigned) [Example 2b, N-(1-(3-cyanobenzyl)-1H-pyrazol-4-yl)-5-(1H-pyrazol-4-yl)-4,5,6,7-tetrahydro-1H-indazole-3-carboxamide]
360 nM | N#Cc1cccc(Cn2cc(NC(=O)c3n[nH]c4c3CCC(c3cncnc3)C4)cn2)c1 (single isomer, unassigned) [Example 4a, N-(1-(3-cyanobenzyl)-1H-pyrazol-4-yl)-6-(pyrimidin-5-yl)-4,5,6,7-tetrahydro-1H-indazole-3-carboxamide]
240 nM | N#Cc1cccc(Cn2cc(NC(=O)c3n[nH]c4c3CCC(c3cncnc3)C4)cn2)c1 (single isomer, unassigned) [Example 4b, N-(1-(3-cyanobenzyl)-1H-pyrazol-4-yl)-6-(pyrimidin-5-yl)-4,5,6,7-tetrahydro-1H-indazole-3-carboxamide]
380 nM | N#Cc1cccc(Cn2cc(NC(=O)c3n[nH]c4c3CCC(O)C4)cn2)c1 (single isomer, unassigned) [Example 5b, N-(1-(3-cyanobenzyl)-1H-pyrazol-4-yl)-6-hydroxy-4,5,6,7-tetrahydro-1H-indazole-3-carboxamide]
70 nM | CC1CCc2[nH]nc(C(=O)Nc3cnn(Cc4ccccc4)c3)c2C1 (single isomer, unassigned) [Example 8a, N-(1-benzyl-1H-pyrazol-4-yl)-5-methyl-4,5,6,7-tetrahydro-1H-indazole-3-carboxamide]
77 nM | CC1CCc2[nH]nc(C(=O)Nc3cnn(Cc4ccccc4)c3)c2C1 (single isomer, unassigned) [Example 8b, N-(1-benzyl-1H-pyrazol-4-yl)-5-methyl-4,5,6,7-tetrahydro-1H-indazole-3-carboxamide]
21 nM | O=C(Nc1cnn(Cc2ccccc2)c1)c1n[nH]c2c1CCC(CO)C2 (single isomer, unassigned) [Example 14b, N-(1-benzyl-1H-pyrazol-4-yl)-6-(hydroxymethyl)-4,5,6,7-tetrahydro-1H-indazole-3-carboxamide]
11 nM | CN(C)CCC(c1ccccc1)n1cc(NC(=O)c2n[nH]c3c2CCC2(COC2)C3)cn1 (single isomer, unassigned) [Example 15a, N-(1-(3-(dimethylamino)-1-phenylpropyl)-1H-pyrazol-4-yl)-1,4,5,7-tetrahydrospiro[indazole-6,3′-oxetane]-3-carboxamide]
0.5 nM | CN(C)CCC(c1ccccc1)n1cc(NC(=O)c2n[nH]c3c2CCC2(CC2)C3)cn1 (single isomer, unassigned) [Example 16a, N-(1-(3-(dimethylamino)-1-phenylpropyl)-1H-pyrazol-4-yl)-1′,4′,5′,7′-tetrahydrospiro[cyclopropane-1,6′-indazole]-3′-carboxamide]
7.9 nM | CN(C)CCC(c1ccccc1)n1cc(NC(=O)c2n[nH]c3c2CCC2(CC2)C3)cn1 (single isomer, unassigned) [Example 16b, N-(1-(3-(dimethylamino)-1-phenylpropyl)-1H-pyrazol-4-yl)-1′,4′,5′,7′-tetrahydrospiro[cyclopropane-1,6′-indazole]-3′-carboxamide]
24 nM | O=C(Nc1cnn(Cc2ccccc2)c1)c1n[nH]c2c1C1CC1CC2 (single isomer, unassigned) [Example 23a, N-(1-benzyl-1H-pyrazol-4-yl)-3,4,5,5a,6,6a-hexahydrocyclopropa[e]indazole-1-carboxamide]
3.5 nM | CC[C@@H](c1ccccc1)n1cc(NC(=O)c2n[nH]c3c2CC2CC2C3)cn1 (single isomer, unassigned) [Example 24b]
2 nM | CN(C)CCC(c1ccccc1)n1cc(NC(=O)c2n[nH]c3c2C2CC2CC3)cn1 (single isomer, unassigned) [Example 26a, N-(1-(3-(dimethylamino)-1-phenylpropyl)-1H-pyrazol-4-yl)-3,4,5,5a,6,6a-hexahydrocyclopropa[e]indazole-1-carboxamide]
